The values below come from patent publication US20200368272A1, “COMPOSITION FOR AMELIORATING POST-CEREBRAL STROKE SEQUELA” (MiZ Company Limited, priority 2019, published 2020).

Molecules are shown by their SMILES.

The conditions of series [1]: normal temperature and pressure; also printed as 1.6 mg/L; cited from earlier work.
The subject of series [2] is sequelae of cerebellar hemorrhage (loss of motor control, language disorder) in a person. On the procedure:
A person was hospitalized after developing cerebellar hemorrhage about eight years ago, then was transferred to a rehabilitation hospital after discharge to receive rehabilitation, which they are continuing to this day.
The inhalation of molecular hydrogen was performed daily for the first 2 months, 1 to 1.5 hours in the morning and 1 to 1.5 hours in the evening, then daily for 1 month, 2 to 3 hours in the morning and 2 to 3 hours in the evening, and finally daily for 1 month, 1 hour in the morning and 1 hour in the evening.

With `[HH]` [molecular hydrogen], in series [1], the “concentration at which hydrogen dissolves in water” value was “about 1.6 ppm”. The “articulation (language disorder)” value in series [2] (approximately one month after inhaling) is “improved”. Further, the “time needed to walk a distance that previously took 20 minutes” value in series [2] (approximately one month after inhaling, about 6 to 7.5 vol % H2) is recorded as “about 10 minutes”. Besides, the speech entry in series [2] (approximately three months after inhalation) is “their speech became even more audible”. Moreover, in series [2] (approximately two months after inhalation), the “motor and daily-life abilities” value is “able to talk while walking, their stride during rehabilitation lengthened”.
